The source of these data is PubChem BioAssay AID1259407 (Chemical Carcinogenesis Research Information System (CCRIS), 2018).

The source made the active and inactive calls. The rule behind the calls is not given here.

The data set concerns CCRIS mutagenicity, Ames/micronucleus/aberration tests. Briefly: CCRIS mutagenicity studies.
[1] abbreviates: Test System: AMES SALMONELLA TYPHIMURIUM, Strain/Indicator: TA98, Metabolic Activation: NONE, Method: PREINCUBATION
Where [2] appears, read: Test System: AMES SALMONELLA TYPHIMURIUM, Strain/Indicator: TA100, Metabolic Activation: NONE, Method: PREINCUBATION
The mark [3] stands for this setting: Test System: AMES SALMONELLA TYPHIMURIUM, Strain/Indicator: TA98, Metabolic Activation: NONE, Method: STANDARD PLATE.
The mark [4] stands for this setting: Test System: AMES SALMONELLA TYPHIMURIUM, Strain/Indicator: TA100, Metabolic Activation: NONE, Method: STANDARD PLATE.
[5] abbreviates: Test System: AMES SALMONELLA TYPHIMURIUM, Strain/Indicator: TA1535, Metabolic Activation: NONE, Method: STANDARD PLATE.

On to `CC(C)CN`, for which the mutagenic call was “inactive; negative” (Test System: AMES SALMONELLA TYPHIMURIUM, Strain/Indicator: TA98, Metabolic Activation: HAMSTER, LIVER, S-9, AROCLOR 1254 (10%), Method: PREINCUBATION); “inactive; negative” under setting [1]; “inactive; negative” (Test System: AMES SALMONELLA TYPHIMURIUM, Strain/Indicator: TA98, Metabolic Activation: RAT, LIVER, S-9, AROCLOR 1254 (10%), Method: PREINCUBATION); “inactive; negative” (Test System: AMES SALMONELLA TYPHIMURIUM, Strain/Indicator: TA100, Metabolic Activation: HAMSTER, LIVER, S-9, AROCLOR 1254 (10%), Method: PREINCUBATION); “inactive; negative” under setting [2]; “inactive; negative” (Test System: AMES SALMONELLA TYPHIMURIUM, Strain/Indicator: TA100, Metabolic Activation: RAT, LIVER, S-9, AROCLOR 1254 (10%), Method: PREINCUBATION). Besides, the mutagenic call was “inactive; negative” (Test System: AMES SALMONELLA TYPHIMURIUM, Strain/Indicator: TA1535, Metabolic Activation: HAMSTER, LIVER, S-9, AROCLOR 1254 (10%), Method: PREINCUBATION); “inactive; negative” (Test System: AMES SALMONELLA TYPHIMURIUM, Strain/Indicator: TA1535, Metabolic Activation: NONE, Method: PREINCUBATION); “inactive; negative” (Test System: AMES SALMONELLA TYPHIMURIUM, Strain/Indicator: TA1535, Metabolic Activation: RAT, LIVER, S-9, AROCLOR 1254 (10%), Method: PREINCUBATION); “inactive; negative” (Test System: AMES SALMONELLA TYPHIMURIUM, Strain/Indicator: TA1537, Metabolic Activation: HAMSTER, LIVER, S-9, AROCLOR 1254 (10%), Method: PREINCUBATION); “inactive; negative” (Test System: AMES SALMONELLA TYPHIMURIUM, Strain/Indicator: TA1537, Metabolic Activation: NONE, Method: PREINCUBATION); “inactive; negative” (Test System: AMES SALMONELLA TYPHIMURIUM, Strain/Indicator: TA1537, Metabolic Activation: RAT, LIVER, S-9, AROCLOR 1254 (10%), Method: PREINCUBATION).

As to `O=C1c2c(O)ccc(O)c2C(=O)c2c(NCCNCCO)ccc(NCCNCCO)c21`, the mutagenic call reads like this: (Test System: AMES SALMONELLA TYPHIMURIUM, Strain/Indicator: TA97, Metabolic Activation: NONE, Method: STANDARD PLATE) “inactive; negative”; (Test System: AMES SALMONELLA TYPHIMURIUM, Strain/Indicator: TA97, Metabolic Activation: RAT, LIVER, S-9, PHENOBARBITAL AND ALPHA-NAPHTHOFLAVONE, Method: STANDARD PLATE) “inactive; negative”; (Test System: AMES SALMONELLA TYPHIMURIUM, Strain/Indicator: TA97A, Metabolic Activation: NONE, Method: STANDARD PLATE) “inactive; negative”; under setting [3], “active; positive”; (Test System: AMES SALMONELLA TYPHIMURIUM, Strain/Indicator: TA98, Metabolic Activation: RAT, LIVER, S-9, PHENOBARBITAL AND ALPHA-NAPHTHOFLAVONE, Method: STANDARD PLATE) “active; positive”; under setting [4], “inactive; negative”. Further, the mutagenic call is, setting by setting: (Test System: AMES SALMONELLA TYPHIMURIUM, Strain/Indicator: TA100, Metabolic Activation: RAT, LIVER, S-9, PHENOBARBITAL AND ALPHA-NAPHTHOFLAVONE, Method: STANDARD PLATE) “inactive; negative”; under setting [5], “inactive; negative”; (Test System: AMES SALMONELLA TYPHIMURIUM, Strain/Indicator: TA1535, Metabolic Activation: RAT, LIVER, S-9, PHENOBARBITAL AND ALPHA-NAPHTHOFLAVONE, Method: STANDARD PLATE) “inactive; negative”; (Test System: AMES SALMONELLA TYPHIMURIUM, Strain/Indicator: TA1538, Metabolic Activation: NONE, Method: STANDARD PLATE) “active; positive”; (Test System: MOUSE LYMPHOMA, Strain/Indicator: L5178Y (TK+/TK-), Metabolic Activation: NONE, Method: SUSPENSION/PLATE) “active; positive”; (Test System: MOUSE LYMPHOMA, Strain/Indicator: L5178Y (TK+/TK-), Metabolic Activation: RAT, LIVER, S-9, AROCLOR 1242 AND 1254 (2:1), Method: SUSPENSION/PLATE) “active; positive”.

Turning to `[O]=[V](=[O])[OH]`, the mutagenic call by setting is: (Test System: AMES SALMONELLA TYPHIMURIUM, Strain/Indicator: TA100, Metabolic Activation: NONE, Method: FLUCTUATION TEST) “active; positive”; (Test System: AMES SALMONELLA TYPHIMURIUM, Strain/Indicator: TA1535, Metabolic Activation: NONE, Method: STANDARD PLATE (PH 7.8, MEDIUM WITH TRIMETAPHOSPHATE IONS)) “active; positive”; (Test System: CHINESE HAMSTER G12, Strain/Indicator: G12/6-THIOGUANINE, Metabolic Activation: NONE) “active; positive”; (Test System: CHINESE HAMSTER V-79, Strain/Indicator: V-79/6-THIOGUANINE, Metabolic Activation: MOUSE, LIVER, S-9) “inactive; negative”; (Test System: E. COLI, Strain/Indicator: WP2 UVRA, Metabolic Activation: NONE, Method: SPOT TEST) “inactive; negative”.

For `Cc1c(N=O)cccc1[N+](=O)[O-]`, the mutagenic call runs as follows: under setting [1], “inactive; negative”; (Test System: AMES SALMONELLA TYPHIMURIUM, Strain/Indicator: TA98, Metabolic Activation: RAT, LIVER, S-9, PHENOBARBITAL AND 5,6-BENZOFLAVONE, Method: PREINCUBATION) “inactive; negative”; under setting [2], “inactive; negative”; (Test System: AMES SALMONELLA TYPHIMURIUM, Strain/Indicator: TA100, Metabolic Activation: RAT, LIVER, S-9, PHENOBARBITAL AND 5,6-BENZOFLAVONE, Method: PREINCUBATION) “inactive; negative”.

Regarding `CCN=NNCC`, the mutagenic call under setting [5] is “active; positive”.

Take `CC(CF)NCC(O)COc1cccc2[nH]c3ccccc3c12` (stereo not given): the mutagenic call is “inactive; negative” under setting [3]; “inactive; negative” (Test System: AMES SALMONELLA TYPHIMURIUM, Strain/Indicator: TA98, Metabolic Activation: RAT LIVER S-9, AROCLOR 1254, 5%, Method: STANDARD PLATE); “active; positive” under setting [4]; “active; positive” (Test System: AMES SALMONELLA TYPHIMURIUM, Strain/Indicator: TA100, Metabolic Activation: RAT LIVER S-9, AROCLOR 1254, 5%, Method: STANDARD PLATE); “active; positive” under setting [5]; “active; positive” (Test System: AMES SALMONELLA TYPHIMURIUM, Strain/Indicator: TA1535, Metabolic Activation: RAT LIVER S-9, AROCLOR 1254, 5%, Method: STANDARD PLATE).
